Results from patent publication US20200031848A1, “AR-V7 INHIBITORS” (Hoffmann-La Roche Inc., priority 2016, published 2020).

Key:
[1] = biological target: T1, AR transcriptional activity (Homo sapiens, UniProt P10275, T878A); test: eGFP cellular AR transcription assay; format: cell-based; settings: for inhibition at 1 µM: read-out: eGFP % inhib. at 1 μM
T1 construct: The LNCaP eGFP cell line was stably transfected with an androgen-responsive probasin-derived promoter fused to an eGFP reporter; endogenous in cells; host or cells: LNCaP eGFP (LN-ARR2PB-eGFP) human prostate cancer cells
T1 sequence (P10275 1-920 T878A): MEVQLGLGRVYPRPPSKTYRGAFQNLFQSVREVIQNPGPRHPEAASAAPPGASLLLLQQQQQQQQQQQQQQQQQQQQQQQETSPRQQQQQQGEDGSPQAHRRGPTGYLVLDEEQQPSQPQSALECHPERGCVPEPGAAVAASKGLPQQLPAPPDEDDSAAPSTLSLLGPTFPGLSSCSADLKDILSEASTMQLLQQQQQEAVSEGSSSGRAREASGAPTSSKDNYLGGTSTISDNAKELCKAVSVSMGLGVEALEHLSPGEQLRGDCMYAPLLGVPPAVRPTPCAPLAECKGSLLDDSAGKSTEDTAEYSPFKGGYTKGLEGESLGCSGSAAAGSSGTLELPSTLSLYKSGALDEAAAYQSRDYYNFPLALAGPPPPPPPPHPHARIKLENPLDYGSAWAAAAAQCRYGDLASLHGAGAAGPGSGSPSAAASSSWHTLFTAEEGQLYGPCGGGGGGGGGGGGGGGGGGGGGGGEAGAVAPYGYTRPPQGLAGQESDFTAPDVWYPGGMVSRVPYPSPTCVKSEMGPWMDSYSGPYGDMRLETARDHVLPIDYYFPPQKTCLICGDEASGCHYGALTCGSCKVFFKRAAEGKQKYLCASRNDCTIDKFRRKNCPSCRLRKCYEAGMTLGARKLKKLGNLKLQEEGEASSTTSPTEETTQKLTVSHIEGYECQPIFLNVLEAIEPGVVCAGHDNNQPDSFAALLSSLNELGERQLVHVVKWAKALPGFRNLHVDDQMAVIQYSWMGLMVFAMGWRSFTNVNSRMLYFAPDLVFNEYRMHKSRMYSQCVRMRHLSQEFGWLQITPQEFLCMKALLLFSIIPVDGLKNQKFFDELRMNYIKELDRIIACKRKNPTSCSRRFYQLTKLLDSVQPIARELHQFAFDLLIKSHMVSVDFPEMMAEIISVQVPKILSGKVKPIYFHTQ
Description: The DNA-binding domain is an attractive target for inhibition of AR dimerization and/or DNA binding. In silico computational drug discovery methods were used to conduct a virtual screen of >3 million purchasable lead-like compounds from the ZINC database (Irwin, J. et al.^11) to identify potential DBD binders. The in silico methods included large-scale docking, in-site rescoring and consensus voting procedures. It will be understood by a person of skill that COOH and NR2 may include the corresponding ions, for example carboxylate ions and ammonium ions, respectively. Alternatively, where the ions are shown, a person of skill in the art will appreciate that the counter ion may also be present. Furthermore, it will be appreciated by a person of skill that other moieties may include the corresponding ions, and where the ions are shown, a person of skill in the art will appreciate that the counter ion may also be present. […] Where the % inhibition, eGFP IC50 or the PSA IC50 has no value given, this may be because no measurement was taken or the value was not calculated, in the case of the % inhibition. In vitro identification of AR inhibitors targeting AR DBD The selected compounds were assessed with a non-destructive eGFP assay that quantifies levels of AR transcriptional activity, were identified (table below).
1. Cell Culture: LNCaP and PC3 human prostate cancer cells were obtained from American Type Culture Collection (ATCC, Manassas, Va.) and grown in RPMI 1640 medium supplemented with 5% fetal bovine serum (FBS) (Invitrogen). The LNCaP eGFP cell line was stably transfected with an androgen-responsive probasin-derived promoter fused to an eGFP reporter (LN-ARR2PB-eGFP) using a lentiviral approach, and were grown in phenol-red-free RPMI 1640 supplemented with 5% CSS. In-house developed MDV3100-resistant LNCaP cells were cultured in RPMI 1640 supplemented with 5% FBS and 10 μM MDV3100. All cells were maintained at 37° C. in 5% CO2.
2. eGFP cellular AR transcription assay: The AR transcriptional activity was assayed as previously described (Tavassoli, P., et al.^12).

[2] = in vitro; settings: human, microsomes, pH 7.4
Description: Microsomal incubations were carried out in 96-well plates in 5 aliquots of 40 μL each (one for each time point). […] Control incubations were performed replacing the NADPH-cofactor system with PBS. […] Incubations were performed in duplicates. Five time points over 40 minutes had been analyzed. The reactions were stopped by adding 12 volumes of 90% acetonitrile-water to incubation aliquots, followed by protein sedimentation by centrifuging at 5500 rpm for 5 minutes. Supernatants were analyzed using the HPLC system coupled with tandem mass spectrometer. The elimination constant (kel), half-life (t1/2) and intrinsic clearance (Clint) were determined in plot of […] versus time, using linear regression analysis: […]

SMILES	IC50 ([1]; LNCaP eGFP cell line) [µM]	microsomal CLint at 2 μM [2] [µL/min/mg]	other results
CCC1COCCN1c1nc(-n2cc(Br)nc2Br)cs1 (centres unmarked) [Example 15, 4-[4-(2,4-dibromoimidazol-1-yl)thiazol-2-yl]-3-ethyl-morpholine]	0.13	51	
Cc1nc(-c2ccccc2)cn1-c1csc(N2CCOCC2)n1 [Example 60, 4-[4-(2-methyl-4-phenyl-imidazol-1-yl)thiazol-2-yl]morpholine]		44	inhibition at 1 µM [1]: 3%
Clc1ncn(-c2csc(N3[C@@H]4CC[C@H]3COC4)n2)c1Cl [Example 19, (1R,5S)-8-[4-(4,5-dichloroimidazol-1-yl)thiazol-2-yl]-3-oxa-8-azabicyclo[3.2.1]octane]	0.32	42	
Brc1cn(-c2csc(N3CCOC4(CCOCC4)C3)n2)c(Br)n1 [Example 28, 4-[4-(2,4-dibromoimidazol-1-yl)thiazol-2-yl]-1,9-dioxa-4-azaspiro[5.5]undecane]	3.12		
Brc1cn(-c2csc(N3CCOC4CCCCC43)n2)c(Br)n1 (centres unmarked) [Example 29, 4-[4-(2,4-dibromoimidazol-1-yl)thiazol-2-yl]-2,3,4a,5,6,7,8,8a-octahydrobenzo[b][1,4]oxazine]	3.15		
COc1nc(Br)cn1-c1csc(N2[C@@H]3CC[C@H]2COC3)n1 [Example 23, (1S,5R)-8-[4-(4-bromo-2-methoxy-imidazol-1-yl)thiazol-2-yl]-3-oxa-8-azabicyclo[3.2.1]octane]	0.27	22	
Brc1nccn1-c1csc(N2CCOCC2)n1 [Example 59, 4-[4-(2-bromoimidazol-1-yl)thiazol-2-yl]morpholine]		42	inhibition at 1 µM [1]: 35%
CC1CN(c2nc(-n3cc(Br)nc3Br)cs2)C(C)CO1 (centres unmarked) [Example 17, 4-[4-(2,4-dibromoimidazol-1-yl)thiazol-2-yl]-2,5-dimethyl-morpholine]	0.19	41	
Brc1cn(-c2csc(N3CCOCC3C3CC3)n2)c(Br)n1 (centres unmarked) [Example 14, 3-cyclopropyl-4-[4-(2,4-dibromoimidazol-1-yl)thiazol-2-yl]morpholine]	0.12		
Cc1ncn(-c2csc(N3CCOCC3)n2)c1Br [Example 54, 4-[4-(5-bromo-4-methyl-imidazol-1-yl)thiazol-2-yl]morpholine]		224	inhibition at 1 µM [1]: 28%
FC(F)(F)C1CN(c2nc(-n3cc(Br)nc3Br)cs2)CCO1 (centres unmarked) [Example 25, 4-[4-(2,4-dibromoimidazol-1-yl)thiazol-2-yl]-2-(trifluoromethyl)morpholine]	1.7		
Cc1c(Br)ncn1-c1csc(N2CCOCC2)n1 [Example 53, 4-[4-(4-bromo-5-methyl-imidazol-1-yl)thiazol-2-yl]morpholine]		72	inhibition at 1 µM [1]: 44%
Brc1ncn(-c2csc(N3CCOC4(COC4)C3)n2)c1Br [Example 65, 8-(4-(4,5-dibromo-1H-imidazol-1-yl)thiazol-2-yl)-2,5-dioxa-8-azaspiro[3.5]nonane]	4.47		
CC(C)(C)C1CN(c2nc(-n3cc(Br)nc3Br)cs2)CC(C(C)(C)C)O1 (centres unmarked) [Example 34, 2,6-ditert-butyl-4-[4-(2,4-dibromoimidazol-1-yl)thiazol-2-yl]morpholine]			eGFP IC50 ([1]; LNCaP eGFP cell line): inact.
Brc1ncn(-c2csc(N3C[C@@H]4C[C@H]3CO4)n2)c1Br [Example 12, (1S,4S)-5-[4-(4,5-dibromoimidazol-1-yl)thiazol-2-yl]-2-oxa-5-azabicyclo[2.2.1]heptane]	1.32		
Clc1c(Br)ncn1-c1csc(N2CCOCC2)n1 [Example 45, 4-[4-(4-bromo-5-chloro-imidazol-1-yl)thiazol-2-yl]morpholine]		185	
CC(C)C1CN(c2nc(-n3cc(Br)nc3Br)cs2)CCO1 (centres unmarked) [Example 30, 4-[4-(2,4-dibromoimidazol-1-yl)thiazol-2-yl]-2-isopropyl-morpholine]	6.65		
Brc1cn(-c2csc(N3CCOC(c4ccccc4)C3)n2)c(Br)n1 (centres unmarked) [Example 31, 4-[4-(2,4-dibromoimidazol-1-yl)thiazol-2-yl]-2-phenyl-morpholine]	8.15		
Clc1cn(-c2csc(N3CCOCC3)n2)cn1 [Example 47, 4-[4-(4-chloroimidazol-1-yl)thiazol-2-yl]morpholine]	0.97		
Brc1cn(-c2csc(N3CCOC(Cc4ccccc4)C3)n2)c(Br)n1 (centres unmarked) [Example 32, 2-benzyl-4-[4-(2,4-dibromoimidazol-1-yl)thiazol-2-yl]morpholine]	27.4		
Brc1cn(-c2csc(N3CC4CC3CO4)n2)c(Br)n1 (centres unmarked) [Example 27, 5-[4-(2,4-dibromoimidazol-1-yl)thiazol-2-yl]-2-oxa-5-azabicyclo[2.2.1]heptane]	1.61		
Brc1cn(-c2csc(N3CCOC4CCCC43)n2)c(Br)n1 (centres unmarked) [Example 26, 4-[4-(2,4-dibromoimidazol-1-yl)thiazol-2-yl]-3,4a,5,6,7,7a-hexahydro-2H-cyclopenta[b][1,4]oxazine]	1.53		
Cc1ncn(-c2csc(N3CCOCC3)n2)c1C [Example 52, 4-[4-(4,5-dimethylimidazol-1-yl)thiazol-2-yl]morpholine]	3.65		
Brc1cn(-c2csc(N3C[C@H]4CC[C@@H](C3)O4)n2)c(Br)n1 [Example 13, (1S,5R)-3-[4-(2,4-dibromoimidazol-1-yl)thiazol-2-yl]-8-oxa-3-azabicyclo[3.2.1]octane]	0.11		
Brc1cn(-c2csc(N3CCOCC3)n2)cn1 [Example 48, 4-[4-(4-bromoimidazol-1-yl)thiazol-2-yl]morpholine]		81	
Brc1cn(-c2csc(N3CCOC(c4cccs4)C3)n2)c(Br)n1 (centres unmarked) [Example 33, 4-[4-(2,4-dibromoimidazol-1-yl)thiazol-2-yl]-2-(2-thienyl)morpholine]	0.17		
Clc1ncn(-c2csc(N3CCOCC3)n2)c1Br [Example 44, 4-[4-(5-bromo-4-chloro-imidazol-1-yl)thiazol-2-yl]morpholine]		196	
N#Cc1nc(Br)cn1-c1csc(N2CCOCC2)n1 [Example 51, 4-bromo-1-(2-morpholinothiazol-4-yl)imidazole-2-carbonitrile]	1.6		
Brc1cn(-c2csc(N3C[C@@H]4C[C@H]3CO4)n2)c(Br)n1 [Example 11, (1S,4S)-5-[4-(2,4-dibromoimidazol-1-yl)thiazol-2-yl]-2-oxa-5-azabicyclo[2.2.1]heptane]	1.18		
CSc1nc(Br)cn1-c1csc(N2[C@@H]3CC[C@H]2COC3)n1 [Example 16, (1R,5S)-8-[4-(4-bromo-2-methylsulfanyl-imidazol-1-yl)thiazol-2-yl]-3-oxa-8-azabicyclo[3.2.1]octane]	0.14		
